In PubChem BioAssay (NCI):
“And” between values parts separate entries of the source, which are not always exact repeats. Equal values may be shown once.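 Exposure lasted 48 hours, with cells grown in 96-well plates and compounds tested at five concentrations. Here, GI50 denotes the concentration required for 50% inhibition of growth. The concentration for full growth arrest is given as TGI.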 *1 amine or outer side, *2 acyl side, *3 side chain or, on linkers, in order; H or OH if unused. Where a SMILES comes first, the peptide text is derived from it. [ ]: non-standard residue; d: D form. The star is where a group is joined. X31 = CC(=O)N(C)SCC(N[*:1])C(=O)[*:2]; Cbz = O=C(OCc1ccccc1)*; Bn = c1ccc(C*)cc1; For = O=C*

Key:
Assay in all cases: NCI anticancer screen, dose series, 48 h
[1] = test system: KM12 colon
[2] = test system: UACC-62 melanoma
[3] = test system: HCT-116 colon
[4] = test system: LOX IMVI melanoma
[5] = test system: SK-OV-3 ovarian
[6] = test system: PC-3 prostate
[7] = test system: CCRF-CEM leukemia
[8] = test system: MOLT-4 leukemia
[9] = test system: T-47D breast
[10] = test system: NCI-H460 lung
[11] = test system: MALME-3M melanoma
[12] = test system: SK-MEL-5 melanoma
[13] = test system: UACC-257 melanoma
[14] = test system: A498 renal

Row | SMILES | TGI [1] | TGI [2] | TGI [3] | TGI [4] | TGI [5] | TGI [6] | TGI [7] | TGI [8] | TGI [9] | TGI [10] | TGI [11] | TGI [12] | TGI [13] | TGI [14] | GI50 [2] | GI50 [5] | GI50 [7] | GI50 [8] | GI50 [9] | GI50 [11]
1 | CC(=O)N(C)SCC(NC(=O)C(Cc1ccccc1)NC(=O)OCc1ccccc1)C(=O)NC(Cc1ccccc1)C(=O)NC(Cc1cn(C=O)c2ccccc12)C(=O)NC(CCCCNC(=O)OCc1ccccc1)C(=O)NC(C(=O)NC(CSN(C)C(C)=O)C(=O)NC(C(N)=O)C(C)OCc1ccccc1)C(C)OCc1ccccc1 (centres undefined) (Cbz-F[X31]FW(For)K(Cbz)T(Bn)[X31]T(Bn)-NH2; configuration not given here) | > 100 µM | > 100 µM | > 100 µM | > 100 µM | 96.1 µM | > 100 µM | > 100 µM | > 100 µM | > 100 µM | > 100 µM | > 100 µM | > 100 µM | > 100 µM | – | – | – | – | – | – | –
2 | Cc1csc2[n+]1C(=O)/C(=C\c1ccc([N+](=O)[O-])cc1)S2 | 82.1 µM | 41 µM | 38.7 µM | 60.4 µM | 85.1 µM | 75.5 µM | > 100 µM | > 100 µM | 65.5 µM | 41.9 µM | – | 55 µM | > 100 µM | 45.5 µM | – | – | – | – | – | –
3 | COC(=O)/C=C(/C)n1nc2ccccc2n1 | > 100 µM | > 100 µM | > 100 µM | – | > 100 µM | > 100 µM | > 100 µM | > 100 µM | > 100 µM | > 100 µM | > 100 µM | > 100 µM | > 100 µM | > 100 µM | – | – | – | – | – | –
4 | O=C1C(Cl)C2(CC(/C=C/c3ccccc3Cl)=NN2c2cccc(S(=O)(=O)O)c2)N1c1nc2ccccc2s1 (centres undefined) | > 100 µM | > 100 µM | > 100 µM | 27.4 µM | – | > 100 µM | 33.9 µM | > 100 µM | > 100 µM | > 100 µM | > 100 µM | > 100 µM | > 100 µM | > 100 µM | – | – | – | – | – | –
5 | COC(=O)C1(CCC(C)=O)CCCCCC1=O (centres undefined) | > 100 µM | > 100 µM | > 100 µM | > 100 µM | > 100 µM | > 100 µM | – | > 100 µM | > 100 µM | > 100 µM | > 100 µM | > 100 µM | > 100 µM | > 100 µM | – | – | – | – | – | –
6 | Cc1cc2ccccc2n2c1nc1ccccc12 | > 100 µM | > 100 µM | > 100 µM | – | > 100 µM | > 100 µM | > 100 µM | > 100 µM | > 100 µM | > 100 µM | > 100 µM | > 100 µM | > 100 µM | 76.7 µM | – | – | – | – | – | –
7 | O=[N+]([O-])/C(C(Cl)=C(Cl)Cl)=C(\N1CCOCC1)n1nnc2ccccc21 | 45.6 µM | 46.7 µM | > 100 µM | – | 79.2 µM | 30.8 µM | – | 72.3 µM | 56.8 µM | 45.6 µM | 35.1 µM | 35.3 µM | 50.7 µM | 37.8 µM | – | – | – | – | – | –
8 | N#Cc1c(-c2ccccc2)cc(-c2ccccc2)n(C2OC(CO)C(O)C(O)C2O)c1=S (centres undefined) | > 100 µM | 33.9 µM and > 100 µM | 46.9 µM and > 100 µM | 37.7 µM and 92.3 µM | > 100 µM | > 100 µM | 57.4 µM and > 100 µM | 51.7 µM and 85.8 µM | 34.5 µM and > 100 µM | 82.8 µM and > 100 µM | 62.5 µM and > 100 µM | 29.1 µM and > 100 µM | – | 52.5 µM | 15.9 µM and 35.5 µM | 40.3 µM and 85 µM | 12.5 µM and 29.2 µM | 11.3 µM and 23.5 µM | 6.51 µM and 29.1 µM | 24.9 µM and > 100 µM
